Like-named read-outs stand apart in the source and are kept apart here.
How the values were obtained:
Format in all cases: biochemical
[1] = target: CDK6/CCND1 (Homo sapiens, UniProt Q00534); experiment: CDK6 homogeneous time-resolved fluorescence (HTRF) kinase assay; details: CDK6/CCND
Procedure: (§1) A CDK homogeneous time-resolved fluorescence (HTRF) assay was used to assess the potency of the compounds described herein.
(§2) To an untreated 384-well microtiter plate (ProxiPlate) was added 100 nL 100×test compound in DMSO and 5 μL 2×CDK enzyme in assay buffer (50 mM HEPES, 1 mM EGTA, 10 mM MgCl2, 0.01% Tween 20, 2 mM DTT). The plate was centrifuged at 800 RPM for 1 min then incubated for 20 min at 23 °C. 2.5 μL per well of 4×ATP and 2.5 μL 4×ULight™-eIF4E-binding protein 1 (Thr37/46) Peptide substrate were added to all wells. After addition, the plates were centrifuged at 800 RPM for 1 min. The plates were incubated at 23 °C for 60 min. 5 μL per well 4×EDTA solution were added to each well to stop the reaction. 5 μL 4×LANCE Ultra Europium-anti-phospho-eIF4E-binding protein 1 (Thr37/46) antibody were added to each well and the plate was centrifuged for 1 min at 800 RPM. The plate was incubated for 60 min at 23 °C. Fluorescence was read at 340 nm excitation and 665 nm emission on an EnVision 2105 fluorescence reader. The final concentrations of reagents in the activity assay were 1 nM CDK6/CCND1, 1 mM ATP, 50 nM ULight™-eIF4E-binding protein 1 (Thr37/46) Peptide substrate, 1% DMSO, 10 mM EDTA, and 2 nM LANCE Ultra Europium-anti-phospho-eIF4E-binding protein 1 (Thr37/46).
(§3) Dose-response titrations were conducted by using an 11-point, half-logarithmic serial dilution scheme typically starting at 10 μM. Signals were reported as fluorescence units at 665 nm or the ratio of fluorescence units at 665 nm/fluorescence units at 615 nm. Signals are referred to below as “Lance signals”.
(§4) Using this assay, the IC50 values of example compounds were determined. Table 3 illustrates the IC50 for various Example compounds of Formula IA. Table 4 illustrates the IC50 for various other Example compounds of Formula I. ND=not determined.

[2] = target: CDK2/CCNE1 (Homo sapiens, UniProt P24941); experiment: CDK2 homogeneous time-resolved fluorescence (HTRF) kinase assay; details: CDK2/CCNE
Procedure, shortened: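 3 nM CDK2/CCNE1 was preincubated with compound for 20 min at 23 °C in HEPES buffer (pH not stated), then reacted 60 min with 1 mM ATP and 50 nM ULight-4E-BP1 (Thr37/46) peptide. After EDTA stop, Eu-anti-phospho-4E-BP1 antibody (2 nM) was added for 60 min and TR-FRET read at 665 nm.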

[3] = target: CDK1/CCNB1 (Homo sapiens, UniProt P06493); experiment: CDK1 homogeneous time-resolved fluorescence (HTRF) kinase assay; details: CDK1/CCNB
Procedure, shortened: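 HTRF assay with 0.5 nM CDK1/CCNB1, 1 mM ATP, 50 nM ULight-eIF4E-BP1 (Thr37/46) peptide; compound preincubated 20 min, reaction 60 min at 23 °C, EDTA stop, Eu-anti-phospho antibody detection. 11-point half-log titration from 10 μM, 1% DMSO; IC50 from 665 nm or 665/615 signal.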

[4] = target: CDK4/CCND3 (Homo sapiens, UniProt P11802); experiment: CDK4 homogeneous time-resolved fluorescence (HTRF) kinase assay; details: CDK4/CCND
Procedure: as §1
as §2, with “were 1.5” for “were 1”, “nM CDK4/CCND3,” for “nM CDK6/CCND1,”
as §3, §4

[5] = >250 nM marked x, read-out: CDK6/CCND IC50 >250 nM
[6] = x = IC50 25-250 nM, read-out: CDK6/CCND IC50 (25-250 nM)
[7] = x = IC50 >250 nM, read-out: CDK6/CCND IC50 (>250 nM column)

CDK6/CCND1, sequence (Q00534 whole entry): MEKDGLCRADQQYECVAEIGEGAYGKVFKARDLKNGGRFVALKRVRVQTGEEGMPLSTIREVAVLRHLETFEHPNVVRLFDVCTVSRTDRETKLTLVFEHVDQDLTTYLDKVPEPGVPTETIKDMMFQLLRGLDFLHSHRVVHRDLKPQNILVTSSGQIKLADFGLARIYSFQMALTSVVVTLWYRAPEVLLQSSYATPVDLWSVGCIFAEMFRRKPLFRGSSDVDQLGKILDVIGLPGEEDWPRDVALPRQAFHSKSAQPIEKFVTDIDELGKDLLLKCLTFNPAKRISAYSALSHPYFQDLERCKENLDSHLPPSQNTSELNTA
CDK6/CCND1, sequence (P24385 whole entry partner): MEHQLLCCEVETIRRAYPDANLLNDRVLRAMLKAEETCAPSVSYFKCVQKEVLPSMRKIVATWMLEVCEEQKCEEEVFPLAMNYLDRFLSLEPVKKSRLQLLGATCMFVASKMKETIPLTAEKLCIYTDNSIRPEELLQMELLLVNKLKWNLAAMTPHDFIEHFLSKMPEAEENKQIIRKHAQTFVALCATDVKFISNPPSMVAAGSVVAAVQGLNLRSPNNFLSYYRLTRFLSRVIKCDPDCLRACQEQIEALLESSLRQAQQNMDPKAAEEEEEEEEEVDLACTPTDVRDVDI
CDK4/CCND3, sequence (P11802 whole entry): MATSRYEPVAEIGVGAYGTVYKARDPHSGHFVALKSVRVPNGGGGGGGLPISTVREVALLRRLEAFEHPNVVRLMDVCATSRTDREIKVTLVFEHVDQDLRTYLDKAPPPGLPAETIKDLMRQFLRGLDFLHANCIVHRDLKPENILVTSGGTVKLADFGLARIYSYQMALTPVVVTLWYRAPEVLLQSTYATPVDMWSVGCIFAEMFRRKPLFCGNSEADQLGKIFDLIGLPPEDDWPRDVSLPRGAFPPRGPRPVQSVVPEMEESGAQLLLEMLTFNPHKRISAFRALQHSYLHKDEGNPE
CDK4/CCND3, sequence (P30281 whole entry partner): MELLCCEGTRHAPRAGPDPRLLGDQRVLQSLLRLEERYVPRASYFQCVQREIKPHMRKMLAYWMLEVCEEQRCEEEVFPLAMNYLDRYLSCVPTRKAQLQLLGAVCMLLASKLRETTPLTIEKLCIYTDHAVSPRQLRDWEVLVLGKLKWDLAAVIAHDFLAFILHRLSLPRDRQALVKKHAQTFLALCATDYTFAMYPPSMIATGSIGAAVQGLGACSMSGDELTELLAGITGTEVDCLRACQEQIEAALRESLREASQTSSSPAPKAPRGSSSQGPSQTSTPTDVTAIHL
CDK1/CCNB1, sequence (P06493 whole entry): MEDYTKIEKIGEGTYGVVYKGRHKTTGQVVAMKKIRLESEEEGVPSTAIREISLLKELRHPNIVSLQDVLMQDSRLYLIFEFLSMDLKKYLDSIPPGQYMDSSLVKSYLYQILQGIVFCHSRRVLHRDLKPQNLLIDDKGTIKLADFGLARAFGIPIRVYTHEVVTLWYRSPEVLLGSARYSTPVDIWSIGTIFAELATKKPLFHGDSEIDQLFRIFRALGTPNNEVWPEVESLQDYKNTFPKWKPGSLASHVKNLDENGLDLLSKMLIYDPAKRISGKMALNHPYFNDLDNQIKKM
CDK1/CCNB1, sequence (P14635 whole entry partner): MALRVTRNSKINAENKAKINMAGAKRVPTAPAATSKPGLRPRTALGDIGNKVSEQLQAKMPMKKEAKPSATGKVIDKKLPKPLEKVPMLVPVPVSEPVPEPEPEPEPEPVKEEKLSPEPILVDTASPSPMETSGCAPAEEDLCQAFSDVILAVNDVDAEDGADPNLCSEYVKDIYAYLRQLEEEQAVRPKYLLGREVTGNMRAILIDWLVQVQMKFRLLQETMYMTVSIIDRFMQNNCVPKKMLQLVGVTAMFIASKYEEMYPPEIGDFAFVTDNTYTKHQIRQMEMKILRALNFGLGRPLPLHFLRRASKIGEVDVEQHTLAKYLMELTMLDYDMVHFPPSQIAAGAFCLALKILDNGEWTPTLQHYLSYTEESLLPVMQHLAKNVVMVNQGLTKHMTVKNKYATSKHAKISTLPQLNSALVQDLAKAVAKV

Q: How did the IC50 ([1]; <25 nM, read-out: CDK6/CCND IC50 <25 nM) turn out when `CS(=O)(=O)N1CCC(Nc2cc3c(C(=O)N4CCCC(O)C4)nccc3cn2)CC1` (racemic) [Ex 95, (3-hydroxypiperidin-1-yl)(7-((1-(methylsulfonyl)piperidin-4-yl)amino)-2,6-naphthyridin-1-yl)methanone] was run?
A: < 25 nM

Q: And the IC50 ([2]; >250 nM marked x, read-out: CDK2/CCNE IC50 >250 nM)?
A: > 250 nM

Q: What about the IC50 ([3]; >250 nM marked x, read-out: CDK1/CCNB IC50 >250 nM) of the same compound?
A: > 250 nM

Q: Which IC50 [1, 5] does the source give for `CC(C)S(=N)(=O)c1ccc(Nc2cc3c(C#Cc4ccc5c(c4)NC(=O)C5(C)CCO)nccc3cn2)cc1` (single isomer, unassigned) [Ex 287, 3-(2-hydroxyethyl)-3-methyl-6-((7-((4-(propan-2-ylsulfonimidoyl)phenyl)amino)-2,6-naphthyridin-1-yl)ethynyl)indolin-2-one] here?
A: > 250 nM

Q: How did the IC50 [1, 5] turn out when `CC(C)S(=N)(=O)c1ccc(Nc2cc3c(C#Cc4ccc5c(c4)NC(=O)C5(C)O)nccc3cn2)cc1` (single isomer, unassigned) [Ex 292, 3-hydroxy-3-methyl-6-((7-((4-(propan-2-ylsulfonimidoyl)phenyl)amino)-2,6-naphthyridin-1-yl)ethynyl)indolin-2-one] was run?
A: > 250 nM

Q: With `Cc1cc(S(C)(=N)=O)ccc1Nc1cc2c(C#Cc3ccc4c(c3)NC(=O)C43CCC3)nccc2cn1` (single isomer, unassigned) [Ex 333, 6'-((7-((2-methyl-4-(S-methylsulfonimidoyl)phenyl)amino)-2,6-naphthyridin-1-yl)ethynyl)spiro[cyclobutane-1,3'-indolin]-2'-one] as the compound, how does the IC50 ([4]; 25-250 nM marked x, read-out: CDK4/CCND IC50 25-250 nM) read?
A: 25 to 250 nM

Q: What about the IC50 ([3]; 25-250 nM marked x, read-out: CDK1/CCNB IC50 25-250 nM) of the same compound?
A: 25 to 250 nM

Q: `N=S(=O)(c1ccc(Nc2cc3c(C#Cc4ccc5c(c4)NC(=O)C54CC4)nccc3cn2)cc1)C1CCC1` (single isomer, unassigned) [Ex 353, 6'-((7-((4-(cyclobutanesulfonimidoyl)phenyl)amino)-2,6-naphthyridin-1-yl)ethynyl)spiro[cyclopropane-1,3'-indolin]-2'-one] was tested. Which IC50 ([4]; x = IC50 25-250 nM, read-out: CDK4/CCND IC50 (25-250 nM)) did it give?
A: 25 to 250 nM

Q: Which IC50 [1, 6] does the source give for `CS(=N)(=O)c1ccc(Nc2cc3c(C#Cc4ccc5c(c4)NC(=O)C54CC4)nccc3cn2)cc1` (single isomer, unassigned) [Ex 359, 6'-((7-((4-(S-methylsulfonimidoyl)phenyl)amino)-2,6-naphthyridin-1-yl)ethynyl)spiro[cyclopropane-1,3'-indolin]-2'-one] here?
A: 25 to 250 nM

Q: Which IC50 [1, 6] does the source give for `N=S(=O)(c1ccc(Nc2cc3c(C#Cc4ccc5c(c4)NC(=O)C54CCC4)nccc3cn2)cc1)C1CC1` (single isomer, unassigned) [Ex 365, 6'-((7-((4-(cyclopropanesulfonimidoyl)phenyl)amino)-2,6-naphthyridin-1-yl)ethynyl)spiro[cyclobutane-1,3'-indolin]-2'-one] here?
A: 25 to 250 nM

Q: Which IC50 [1, 7] does the source give for `CCS(=N)(=O)c1ccc(Nc2cc3c(C#Cc4ccc5c(c4)NC(=O)C54CCC4)nccc3cn2)cc1` (single isomer, unassigned) [Ex 367, 6'-((7-((4-(ethylsulfonimidoyl)phenyl)amino)-2,6-naphthyridin-1-yl)ethynyl)spiro[cyclobutane-1,3'-indolin]-2'-one] here?
A: > 250 nM

Q: With `CC1(C)C(=O)Nc2cc(C#Cc3nccc4cnc(Nc5ccc(S(C)(=N)=O)cc5)cc34)ccc21` (single isomer, unassigned) [Ex 452, 3,3-dimethyl-6-((7-((4-(S-methylsulfonimidoyl)phenyl)amino)-2,6-naphthyridin-1-yl)ethynyl)indolin-2-one] as the compound, how does the IC50 [1, 6] read?
A: 25 to 250 nM

Q: For `CC1(C)C(=O)Nc2cc(C#Cc3nccc4cnc(Nc5ccc(S(=N)(=O)C6CCC6)cc5)cc34)ccc21` (single isomer, unassigned) [Ex 453, 6-((7-((4-(cyclobutanesulfonimidoyl)phenyl)amino)-2,6-naphthyridin-1-yl)ethynyl)-3,3-dimethylindolin-2-one], which IC50 [1, 6] is on record?
A: 25 to 250 nM

Q: And the IC50 ([2]; x = IC50 <25 nM, read-out: CDK2/CCNE IC50 (<25 nM))?
A: < 25 nM

Q: And the IC50 ([3]; x = IC50 <25 nM, read-out: CDK1/CCNB IC50 (<25 nM))?
A: < 25 nM

Q: Which IC50 [1, 7] does the source give for `CC(C)S(=N)(=O)c1ccc(Nc2cc3c(C#Cc4ccc5c(c4)NC(=O)C5(C)C)nccc3cn2)cc1` (single isomer, unassigned) [Ex 456, 3,3-dimethyl-6-((7-((4-(propan-2-ylsulfonimidoyl)phenyl)amino)-2,6-naphthyridin-1-yl)ethynyl)indolin-2-one] here?
A: > 250 nM

Q: How did the IC50 [1, 7] turn out when `CC1(CO)C(=O)Nc2cc(C#Cc3nccc4cnc(Nc5ccc(S(C)(=O)=O)cc5)cc34)ccc21` (single isomer, unassigned) [Example 373, 3-(hydroxymethyl)-3-methyl-6-((7-((4-(methylsulfonyl)phenyl)amino)-2,6-naphthyridin-1-yl)ethynyl)indolin-2-one] was run?
A: > 250 nM

Q: Which IC50 ([4]; x = IC50 >250 nM, read-out: CDK4/CCND IC50 (>250 nM column)) does the source give for `CCC1(CC)C(=O)Nc2cc(C#Cc3nccc4cnc(Nc5ccc(S(=N)(=O)C6CCC6)cc5)cc34)ccc21` (single isomer, unassigned) [Example 413, 6-((7-((4-(cyclobutanesulfonimidoyl)phenyl)amino)-2,6-naphthyridin-1-yl)ethynyl)-3,3-diethylindolin-2-one] here?
A: > 250 nM

Q: How did the IC50 [1, 7] turn out when `Cc1c(-c2nccc3cnc(Nc4ccc(S(C)(=N)=O)cc4)cc23)ccc2nn(C)cc12` (single isomer, unassigned) [Example 546, (4-((5-(2,4-dimethyl-2H-indazol-5-yl)-2,6-naphthyridin-3-yl)amino)phenyl)(imino)(methyl)-λ^6-sulfanone] was run?
A: > 250 nM

Q: Which results are given for `Cc1c(-c2nccc3cnc(Nc4ccc(S(=O)(=O)Nc5cc(F)cc(C(C)(C)O)c5)cc4)cc23)ccc2c1cnn2CC(C)(C)O` [Ex 801, N-(3-fluoro-5-(2-hydroxypropan-2-yl)phenyl)-4-((5-(1-(2-hydroxy-2-methylpropyl)-4-methyl-1H-indazol-5-yl)-2,6-naphthyridin-3-yl)amino)benzenesulfonamide]?
A: IC50 ([1]; >250 nM, 1 mM ATP, read-out: CDK6/CCND IC50, >250 nM): > 250 nM; IC50 ([2]; <25 nM, read-out: CDK2/CCNE IC50, <25 nM): < 25 nM; IC50 ([3]; >250 nM, read-out: CDK1/CCNB IC50 >250 nM): > 250 nM
